How the values were obtained:
Assay in all cases: relative viability (nuclei count vs DMSO), 5 days (fraction); higher = more cells survive
[1] = compound: CN(c1ncccc1CNc1nc(Nc2ccc3c(c2)CC(=O)N3)ncc1C(F)(F)F)S(C)(=O)=O + COc1cc2c(Oc3ccc(NC(=O)C4(C(=O)Nc5ccc(F)cc5)CC4)cc3F)ccnc2cc1OCCCN1CCOCC1 [Foretinib] (partner 0.25 µM)
Outline: (§1)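 Relative viability is defined as nuclei in treated wells over nuclei in vehicle wells. Duplicate plates were run and medians reported. Lung cancer cell lines in 1536-well plates were dosed by pin tool one day after seeding, with one drug or with a fixed anchor-drug dose plus five library-drug doses (not always all listed) in √10 steps, and nuclei were counted after 5 days.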

[2] = compound: CN(c1ncccc1CNc1nc(Nc2ccc3c(c2)CC(=O)N3)ncc1C(F)(F)F)S(C)(=O)=O + COc1cccc2cc(-c3nc([C@H]4CC[C@H](C(=O)O)CC4)n4ncnc(N)c34)[nH]c12 [OSI-027] (partner 0.5 µM)
Outline: as §1

[3] = compound: CN(c1ncccc1CNc1nc(Nc2ccc3c(c2)CC(=O)N3)ncc1C(F)(F)F)S(C)(=O)=O + NC(=O)Nc1cc(-c2cccc(F)c2)sc1C(=O)N[C@H]1CCCNC1 [AZD7762] (partner 0.2 µM)
Outline: as §1

[4] = compound: CN(c1ncccc1CNc1nc(Nc2ccc3c(c2)CC(=O)N3)ncc1C(F)(F)F)S(C)(=O)=O + Nc1nc2[nH]cc(CCc3ccc(C(=O)N[C@@H](CCC(=O)O)C(=O)O)cc3)c2c(=O)[nH]1 [Pemetrexed] (partner 0.2 µM)
Outline: as §1

| Cell Line | relative viability ([1]; first compound 0.01 µM) | relative viability ([1]; first compound 0.03162 µM) | relative viability ([1]; first compound 0.1 µM) | relative viability ([1]; first compound 0.3162 µM) | relative viability ([1]; first compound 1 µM) | relative viability ([2]; first compound 0.01 µM) | relative viability ([2]; first compound 0.03162 µM) | relative viability ([2]; first compound 0.1 µM) | relative viability ([2]; first compound 0.3162 µM) | relative viability ([2]; first compound 1 µM) | relative viability ([3]; first compound 0.01 µM) | relative viability ([3]; first compound 0.03162 µM) | relative viability ([3]; first compound 0.1 µM) | relative viability ([3]; first compound 0.3162 µM) | relative viability ([3]; first compound 1 µM) | relative viability ([4]; first compound 0.01 µM) | relative viability ([4]; first compound 0.03162 µM) | relative viability ([4]; first compound 0.1 µM) | relative viability ([4]; first compound 0.3162 µM) | relative viability ([4]; first compound 1 µM) |
| --- | --- | --- | --- | --- | --- | --- | --- | --- | --- | --- | --- | --- | --- | --- | --- | --- | --- | --- | --- | --- |
| PC-14 | 1.01 | 1.04 | 1.01 | 1.07 | 1 | 0.931 | 1.05 | 0.895 | 1.13 | 0.809 | 0.393 | 0.443 | 0.426 | 0.385 | 0.311 | 0.162 | 0.135 | 0.134 | 0.128 | 0.134 |
| A-427 | 1.04 | 1.18 | 1.01 | 1.16 | 1.07 | 0.472 | 0.553 | 0.504 | 0.44 | 0.475 | 0.798 | 0.81 | 0.874 | 1.14 | 0.907 | 0.939 | 0.956 | 0.932 | 0.955 | 0.948 |
| H3255 | 0.88 | 0.818 | 0.867 | 0.981 | 0.769 | 0.606 | 0.611 | 0.488 | 0.568 | 0.598 | 0.938 | 0.871 | 0.935 | 0.934 | 0.81 | 0.647 | 0.585 | 0.541 | 0.614 | 0.549 |
| NCI-H1734 | 0.93 | 0.911 | 0.796 | 0.828 | 0.712 | 0.581 | 0.612 | 0.534 | 0.609 | 0.545 | 0.55 | 0.659 | 0.667 | 0.782 | 0.742 | 0.421 | 0.379 | 0.395 | 0.421 | 0.439 |
| NCI-H1993 | 0.692 | 0.994 | 0.744 | 0.75 | 0.767 | 0.456 | 0.508 | 0.5 | 0.541 | 0.525 | 0.852 | 0.837 | 0.836 | 0.634 | 0.737 | 0.584 | 0.593 | 0.538 | 0.641 | 0.572 |
| NCI-H1437 | 1.31 | 1.2 | 1.21 | 1.11 | 0.988 | 0.96 | 0.929 | 0.917 | 0.876 | 0.773 | 1.12 | 1.17 | 1.15 | 1.08 | 1.07 | 0.332 | 0.335 | 0.33 | 0.347 | 0.398 |
| 201T | 1.06 | 1.09 | 1.09 | 0.928 | 1.02 | 0.658 | 0.702 | 0.741 | 0.663 | 0.648 | 0.617 | 0.582 | 0.688 | 0.654 | 0.604 | 0.336 | 0.333 | 0.383 | 0.34 | 0.316 |
| NCI-H358 | 0.717 | 0.659 | 0.782 | 0.638 | 0.517 | 0.791 | 0.822 | 0.849 | 0.815 | 0.752 | 0.552 | 0.553 | 0.381 | 0.533 | 0.339 | 0.148 | 0.164 | 0.169 | 0.177 | 0.156 |
| ChaGo-K-1 | 0.968 | 0.894 | 0.946 | 0.935 | 0.782 | 0.537 | 0.566 | 0.544 | 0.538 | 0.659 | 0.932 | 0.856 | 0.873 | 0.917 | 0.853 | 0.252 | 0.254 | 0.264 | 0.258 | 0.246 |
| LOU-NH91 | 0.945 | 1.02 | 0.88 | 1.04 | 0.999 | 0.714 | 0.82 | 0.685 | 0.823 | 0.801 | 0.793 | 0.754 | 0.735 | 0.746 | 0.79 | 0.423 | 0.368 | 0.375 | 0.382 | 0.338 |
| HOP-62 | 1.04 | 1.16 | 0.958 | 1.02 | 1.03 | 0.956 | 0.804 | 0.743 | 0.825 | 0.731 | 0.742 | 0.776 | 0.531 | 0.75 | 0.628 | 0.34 | 0.337 | 0.289 | 0.418 | 0.28 |
| NCI-H1915 | 1.13 | 1.06 | 1.04 | 1.12 | 1.04 | 0.639 | 0.625 | 0.607 | 0.684 | 0.615 | 0.762 | 0.654 | 0.696 | 0.703 | 0.76 | 0.528 | 0.569 | 0.455 | 0.517 | 0.538 |
| NCI-H3122 | 1.01 | 0.876 | 0.916 | 0.902 | 0.929 | 0.976 | 1.07 | 0.762 | 1.06 | 0.954 | 1.04 | 1.09 | 0.981 | 0.978 | 1.03 | 0.202 | 0.194 | 0.175 | 0.181 | 0.193 |
| NCI-H1651 | 0.817 | 0.88 | 0.906 | 0.765 | 0.784 | 0.802 | 0.794 | 0.738 | 0.796 | 0.739 | 0.507 | 0.469 | 0.488 | 0.534 | 0.484 | 0.585 | 0.593 | 0.558 | 0.575 | 0.579 |
| NCI-H838 | 1.01 | 1.06 | 1.07 | 0.882 | 0.718 | 0.492 | 0.413 | 0.396 | 0.394 | 0.413 | 0.994 | 0.955 | 0.964 | 0.861 | 0.933 | 0.247 | 0.258 | 0.247 | 0.219 | 0.238 |
| NCI-H596 | 0.848 | 0.859 | 0.863 | 0.806 | 0.861 | 0.698 | 0.799 | 0.664 | 0.731 | 0.669 | 0.999 | 1.1 | 0.948 | 1.05 | 1.05 | 0.425 | 0.466 | 0.503 | 0.469 | 0.605 |
